In ChEMBL document CHEMBL3414448, “Advances in the discovery of novel antimicrobials targeting the assembly of bacterial cell division protein FtsZ” (Eur J Med Chem, 2015):
Each block holds one molecule with its values, some of them ahead of it.

Experiments:
[1] = molecular target: T1, Cell division protein FtsZ (Staphylococcus aureus) (UniProt P0A031); assay: Inhibition of FtsZ in methicillin-resistant Staphylococcus aureus assessed as reduction in methicillin MIC (reference value: 32 ug/ml)
T1 sequence (whole entry): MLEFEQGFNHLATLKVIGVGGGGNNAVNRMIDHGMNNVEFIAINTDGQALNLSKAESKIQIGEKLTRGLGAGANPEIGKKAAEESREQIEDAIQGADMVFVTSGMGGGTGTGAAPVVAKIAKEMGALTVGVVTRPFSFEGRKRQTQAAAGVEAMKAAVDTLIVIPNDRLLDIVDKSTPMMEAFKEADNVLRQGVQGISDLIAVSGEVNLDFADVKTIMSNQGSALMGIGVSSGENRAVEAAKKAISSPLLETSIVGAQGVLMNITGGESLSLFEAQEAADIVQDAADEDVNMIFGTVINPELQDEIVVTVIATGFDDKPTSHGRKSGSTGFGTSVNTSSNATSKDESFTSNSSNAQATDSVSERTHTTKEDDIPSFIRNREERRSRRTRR

[2] = molecular target: T2, Cell division protein FtsZ (Bacillus subtilis (strain 168)) (UniProt P17865); assay: Inhibition of Bacillus subtilis FtsZ GTPase activity; details: concentration not given here
T2 sequence (whole entry): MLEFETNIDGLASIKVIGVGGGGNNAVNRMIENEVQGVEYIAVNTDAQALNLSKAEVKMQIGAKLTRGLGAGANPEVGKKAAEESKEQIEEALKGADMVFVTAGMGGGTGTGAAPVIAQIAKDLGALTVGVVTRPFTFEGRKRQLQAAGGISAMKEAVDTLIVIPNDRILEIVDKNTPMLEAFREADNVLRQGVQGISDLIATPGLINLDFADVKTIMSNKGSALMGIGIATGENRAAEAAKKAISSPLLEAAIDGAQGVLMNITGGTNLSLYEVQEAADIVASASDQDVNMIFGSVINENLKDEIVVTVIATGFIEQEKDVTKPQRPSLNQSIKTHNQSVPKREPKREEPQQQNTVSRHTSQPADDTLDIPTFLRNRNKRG

[3] = Inhibition of FtsZ (unknown origin) assessed as reduction in frequency of Z-rings per unit cell length; details: concentration not given here
[4] = molecular target: T3, Cell division protein FtsZ (Escherichia coli K-12) (UniProt P0A9A6); assay: Inhibition of Escherichia coli FtsZ assembly
T3 sequence (whole entry): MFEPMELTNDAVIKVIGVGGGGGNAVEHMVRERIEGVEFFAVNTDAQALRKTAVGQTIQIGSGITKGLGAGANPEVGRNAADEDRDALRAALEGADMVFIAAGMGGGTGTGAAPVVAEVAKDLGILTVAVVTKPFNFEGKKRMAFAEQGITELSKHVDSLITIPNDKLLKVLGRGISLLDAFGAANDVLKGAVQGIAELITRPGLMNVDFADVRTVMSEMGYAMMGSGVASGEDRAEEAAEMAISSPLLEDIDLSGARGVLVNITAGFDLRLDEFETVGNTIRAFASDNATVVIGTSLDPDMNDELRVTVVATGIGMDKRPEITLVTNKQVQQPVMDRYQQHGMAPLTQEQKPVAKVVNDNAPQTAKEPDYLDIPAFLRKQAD

[5] = molecular target: T3, Cell division protein FtsZ (Escherichia coli K-12); assay: Inhibition of FtsZ in Escherichia coli assessed as Z-ring containing cells level at 4 and 8 ug/ml (reference value: 88%); design: scale not given: the % may be the effect or the level left
[6] = Activation of FtsZ (unknown origin) assessed as increase in enzyme GTPase activity at 30 uM

inhibition [3]: 50%
Compound: COc1ccc2cc3[n+](cc2c1OC)CCc1cc2c(cc1-3)OCO2

ID50 [4]: 7.6 µM
Compound: COc1c(OC(C)=O)ccc(/C=N/c2c(C(C)C)cccc2C(C)C)c1[N+](=O)[O-]

ID50 [4]: 2.1 µM
Compound: COc1ccc(/N=C/c2ccc(OC(C)=O)c(OC)c2[N+](=O)[O-])cc1

Activity [5]: 35%
Compound: NCC[C@H](O)C(=O)N[C@@H]1C[C@H](N)[C@@H](O[C@H]2O[C@H](CN)[C@@H](O)[C@H](O)[C@H]2O)[C@H](O)[C@H]1O[C@H]1O[C@H](CO)[C@@H](O)[C@H](N)[C@H]1O

Activity [6]: 35%
Compound: COc1cc(/C=C/C(=O)CC(=O)/C=C/c2ccc(O)c(OC)c2)ccc1O

Continued, molecule first:

Compound: CC(C)c1c(O)ccc2c1CC[C@H]1C(C)(C)CCC[C@]21C
MIC [1]: 4 µg/mL

Compound: O=C(Oc1cc(OC(=O)c2cc(O)cc(O)c2)c2ccccc2c1)c1cc(O)c(O)c(O)c1
inhibition [2]: < 20%

Compound: O=C(Oc1cc(OC(=O)c2ccc(O)c(Cl)c2)c2ccccc2c1)c1ccc(O)c(Cl)c1
inhibition [2]: < 20%
